Laboratory results as given in patent publication US3985779A, “M-phenoxyphenyl propionic acid derivatives and preparation thereof” (Eisai Co., Ltd., priority 1973, dated 1976).

Legend:
[1] = tested on: Carrageenin-induced edema; test: Inhibitory activity on Carrageenin-induced Edema in rats (Experiment A); type: in vivo, rats (male Wistar); conditions: 3 hours after Carrageenin
Description: Inhibitory activity on Carrageenin-induced Edema in rats
Carrageenin was used as the agent for inducing edema and 5 male rats of Wistar strain having body weight of about 150 grs. after fasting for 16-17 hours were used as test animals. The inhibitory activity of the test compounds were determined with the paw edema method in accordance with Winter C. A. et al; Proc. Soc. Exp. Biol. Med. 111, 544 (1962).
The compounds were suspended in an aqueous solution of gum arabic and the same were orally administered to the rats at 1 hour before the injection of Carrageenin.
The observation was effected by measuring, after 3 hours the administration of the Carrageenin, the enlarged volumes of hind paw of the rats.

[2] = tested on: Kaolin-induced edema; test: Inhibitory activity on Kaolin-induced Edema in Rats (Experiment B); type: in vivo
[3] = tested on: Dextran-induced edema; test: Inhibitory activity on dextran-induced edema in rats (Experiment C); type: in vivo
Description: Inhibitory activity on dextran-induced edema in rats Experiment was carried out in the manner same as those of the preceding Experiments in which dextran was employed as irritant substance.

[4] = tested on: ARRS-induced edema; test: Inhibitory activity on anti-rat-rabbit serum (ARRS)-induced edema in rats (Experiment D); type: in vivo
Description: Inhibitory activity on anti-rat-rabbit serum (ARRS)-induced edema in rats Similar Experiments was carried out by using ARRS as irritant substance.

## CC(C(=O)O)c1cccc(Oc2ccc(Cl)cc2)c1 (stereo not drawn) [(3), 2-[m-(p-chlorophenoxy)phenyl]propionic acid]
[1]; oral 3.2 mg/kg
  % of Inhibition: 20%
  Edema density ± S.E.: .430 ± .068
[1]; oral 80.0 mg/kg
  % of Inhibition: 38%
  Edema density ± S.E.: .334 ± .055
[2]; after 3 hrs, oral 16 mg/kg
  Edema D. ± S.E.: .418 ± .024
[2]; after 3 hrs, oral 80 mg/kg
  % of Inhibition: 29%
  Edema D. ± S.E.: .297 ± .085
[2]; after 5 hrs, oral 16 mg/kg
  % of Inhibition: 13%
  Edema D. ± S.E.: .491 ± .021
[2]; after 5 hrs, oral 80 mg/kg
  % of Inhibition: 40%
  Edema D. ± S.E.: .340 ± .107
[2]; after 7 hrs, oral 16 mg/kg
  % of Inhibition: 14%
  Edema D. ± S.E.: .524 ± .037
[2]; after 7 hrs, oral 80 mg/kg
  % of Inhibition: 27%
  Edema D. ± S.E.: .442 ± .119
[3]; after 2 hrs, oral 16 mg/kg
  % of Inhibition: 6%
  Edema D. ± S.E.: .782 ± .062
[3]; after 2 hrs, oral 80 mg/kg
  % of Inhibition: 7%
  Edema D. ± S.E.: .776 ± .022
[3]; after 3 hrs, oral 16 mg/kg
  % of Inhibition: 5%
  Edema D. ± S.E.: .713 ± .036
[3]; after 3 hrs, oral 80 mg/kg
  % of Inhibition: 4%
  Edema D. ± S.E.: .723 ± .027
[4]; after 2 hrs, oral 16 mg/kg
  % of Inhibition: 10%
  Edema D. ± S.E.: .613 ± .054
[4]; after 2 hrs, oral 80 mg/kg
  % of Inhibition: 1%
  Edema D. ± S.E.: .672 ± .036
[4]; after 3 hrs, oral 16 mg/kg
  % of Inhibition: 16%
  Edema D. ± S.E.: .599 ± .065
[4]; after 3 hrs, oral 80 mg/kg
  % of Inhibition: 11%
  Edema D. ± S.E.: .634 ± .016

## CC(C(=O)O)c1cccc(Oc2ccc(Cl)cc2)c1 (stereo not drawn) [(4)]
[1]; oral 8.0 mg/kg
  % of Inhibition: 12%
  Edema density ± S.E.: .477 ± .049
[1]; oral 40.0 mg/kg
  % of Inhibition: 46%
  Edema density ± S.E.: .293 ± .056
[2]; after 3 hrs, oral 8 mg/kg
  % of Inhibition: 12%
  Edema D. ± S.E.: .369 ± .048
[2]; after 3 hrs, oral 40 mg/kg
  % of Inhibition: 35%
  Edema D. ± S.E.: .271 ± .075
[2]; after 5 hrs, oral 8 mg/kg
  % of Inhibition: 8%
  Edema D. ± S.E.: .519 ± .035
[2]; after 5 hrs, oral 40 mg/kg
  % of Inhibition: 41%
  Edema D. ± S.E.: .333 ± .073
[2]; after 7 hrs, oral 8 mg/kg
  % of Inhibition: -3%
  Edema D. ± S.E.: .625 ± .040
[2]; after 7 hrs, oral 40 mg/kg
  % of Inhibition: 35%
  Edema D. ± S.E.: .396 ± .072
[3]; after 2 hrs, oral 8 mg/kg
  % of Inhibition: 10%
  Edema D. ± S.E.: .753 ± .052
[3]; after 2 hrs, oral 40 mg/kg
  % of Inhibition: 6%
  Edema D. ± S.E.: .780 ± .033
[3]; after 3 hrs, oral 8 mg/kg
  % of Inhibition: 10%
  Edema D. ± S.E.: .780 ± .033
[3]; after 3 hrs, oral 40 mg/kg
  % of Inhibition: 8%
  Edema D. ± S.E.: .692 ± .048
[4]; after 2 hrs, oral 8 mg/kg
  % of Inhibition: 5%
  Edema D. ± S.E.: .649 ± .032
[4]; after 2 hrs, oral 40 mg/kg
  % of Inhibition: 17%
  Edema D. ± S.E.: .563 ± .016
[4]; after 3 hrs, oral 8 mg/kg
  % of Inhibition: 13%
  Edema D. ± S.E.: .621 ± .058
[4]; after 3 hrs, oral 40 mg/kg
  % of Inhibition: 25%
  Edema D. ± S.E.: .535 ± .027
